Legend:
Vibrio fischeri = Vibrio fischeri bioluminescence inhibition assay; type: cell-based; details: Aliivibrio fischeri, 0.5 h; luminescence inhibition, 30-min exposure, 15 °C; read-out: V. fisheri, EC50 (95% CI)
Experimental: To assess the aquatic toxicity of ester-functionalized cholinium-based ILs, a series of toxicity tests were conducted using the saltwater bacterium Vibrio fischeri. The bioluminescence inhibition assay with V. fischeri is a well-standardized and frequently employed method in ecotoxicological studies due to its sensitivity and reliability. The experimental procedure involved exposing V. fischeri to increasing concentrations of ILs and measuring the reduction in bioluminescence after a 30-min period. This bioluminescence reduction serves as a quantitative indicator of the ILs’ aquatic toxicity in marine bacteria.
The V. fisheri bioluminescence assay was used to assess the aquatic toxicity of ester-functionalized choline-based ILs. […] We determined the concentration causing a 50% reduction in bacterial light emission (EC50) through regression analysis. The reported toxicity data are based on a 30-min exposure of the bacteria to the ionic liquid solution at 15 °C.

MRSA biofilms = type: cell-based, methicillin-resistant Staphylococcus aureus; details: MRSA biofilm, MTT
Experimental: The biocidal activity of the ester-functionalized choline-based ILs on bacterial and fungal cells in biofilms was assessed by MTT cell viability assays. CnECholBr were evaluated for their potential to kill cells in pre-established biofilms of MRSA and C. albicans, two clinically relevant pathogens. Pre-formed biofilms on 48-wells plates were treated with increasing concentrations of the ester-functionalized choline-based ILs and the cell viability of the sessile cells was quantified by the MTT method. The results obtained for MRSA and C. albicans biofilms are shown in Figure 6a and Figure 6b, respectively.
Antibiofilm activity was assessed against biofilm-forming strains of methicillin-resistant Staphylococcus aureus (MRSA) ATCC 43300 and Candida albicans ATCC 90028. The biofilm inhibition and eradication capacities of ILs were evaluated against adherent bacterial biofilms grown in 96-well microtiter plates. Bacteria were grown on Tryptic soy agar at 37 °C for 24 h and the fungi on Sabouraud agar at 30 °C for 24 h. Bacteria were suspended in lysogeny broth containing glucose (1%) at 1.5 × 10^8 CFU/mL and yeasts were suspended in RPMI medium at 1.5 × 10^7 CFU/mL.
For mature biofilm formation, 200 μL of the bacterial or fungal suspension was added to each well in a 48-well microplate, and incubated for 24 h at 37 °C for bacteria and 30 °C for yeast. The wells were then washed three times with PBS and 200 µL of each test solution with different concentrations of surfactants prepared in MHB (for bacteria) or RPMI medium (for yeasts) was added to each well containing the preformed biofilm. The plates were incubated for 24 h at 30 °C. The medium was removed and the wells were then washed twice with PBS. MTT solution (200 μL) was added to each well and the plate was incubated for 4 h. The MTT was then removed and 200 μL of DMSO was added to solubilize […]. The OD value was recorded at 540 nm. Controls were performed with non-ionic liquids. Each assay was run four times and the results were averaged.

Structure (SMILES)	EC50 (Vibrio fischeri) [µg/mL]	reduction in cell viability (MRSA biofilms; at 32 µg/mL) [%]	inhibition of cell viability (MRSA biofilms; concentrations ≥ 128 µg/mL) [%]	cell viability (MRSA biofilms; plateau at and above 128 µg/mL)
CCCCCCCCCCOC(=O)C[N+](C)(C)CCO [C10ECholBr]	1.7	50		
CCCCCCCCCCCCOC(=O)C[N+](C)(C)CCO [C12ECholBr]	0.27		> 95	
CCCCCCCCCCCCCCOC(=O)C[N+](C)(C)CCO.[Br-] [C14ECholBr, N-(2-hydroxyethyl)-N,N-dimethyl-2-oxo-2-(tetradecyloxy)ethan-1-aminium bromide]	0.44			around 30%

From PMC11946258, “Self-Assembly, Antimicrobial Properties and Biodegradability of Ester-Functionalized Choline-Based Surface-Active Ionic Liquids” (Molecules, 2025)
